Experimental data: patent US10351575B2, “Bicyclic urea, thiourea, guanidine and cyanoguanidine compounds useful for the treatment of pain” (Array BioPharma Inc., priority 2012, dated 2019)

biological target: His-tagged recombinant human TrkA (Homo sapiens (Human), UniProt P04629); assay: TrkA LanthaScreen Eu Kinase Binding Assay; settings: averaged IC50; TR-FRET binding, 60 min, 22° C.; read-out: TrkA Enzyme IC50
How it was run: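 Three-fold compound dilutions (2% DMSO final) were incubated 60 min at 22° C. with 5 nM His-TrkA cytoplasmic domain, tracer 236 (4 nM), biotinylated anti-His (2 nM) and europium streptavidin (2 nM) in MOPS pH 7.5 buffer. Emission ratio 665/615 gave percent of control; four-parameter fit yielded IC50.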

Chain of His-tagged recombinant human TrkA (P04629 440-796): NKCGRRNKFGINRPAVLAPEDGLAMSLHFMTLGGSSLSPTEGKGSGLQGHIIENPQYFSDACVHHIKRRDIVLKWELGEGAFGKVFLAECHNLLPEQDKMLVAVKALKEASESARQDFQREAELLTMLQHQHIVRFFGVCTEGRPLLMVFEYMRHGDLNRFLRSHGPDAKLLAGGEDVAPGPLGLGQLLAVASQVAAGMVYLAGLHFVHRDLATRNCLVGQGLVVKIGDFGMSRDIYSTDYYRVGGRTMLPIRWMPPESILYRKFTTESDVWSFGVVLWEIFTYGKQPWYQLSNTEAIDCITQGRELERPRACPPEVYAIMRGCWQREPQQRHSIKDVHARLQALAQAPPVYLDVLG

| Structure (SMILES) | IC50 [nM] |
| --- | --- |
| COCCO[C@@H]1Cc2ccccc2[C@H]1NC(=O)Nc1c2c(nn1-c1ccccc1)CCC2 [Example 50, 1-((1R,2R)-2-(2-methoxyethoxy)-2,3-dihydro-1H-inden-1-yl)-3-(2-phenyl-2,4,5,6-tetrahydrocyclopenta[c]pyrazol-3-yl)urea] | 100 to 1000 |
| COCCO[C@H]1Cc2ccccc2[C@@H]1NC(=O)Nc1c(C)c(-c2cnn(C)c2)nn1-c1ccccc1 [Example 51, 1-(1′,4-dimethyl-1-phenyl-1H,1′H-[3,4′-bipyrazol]-5-yl)-3-((1S,2S)-2-(2-methoxyethoxy)-2,3-dihydro-1H-inden-1-yl)urea] | 100 to 1000 |
| COCCO[C@H]1Cc2ccccc2[C@@H]1NC(=O)Nc1c(Br)c(C)nn1-c1ccccc1 [Example 52, 1-(4-bromo-3-methyl-1-phenyl-1H-pyrazol-5-yl)-3-((1S,2S)-2-(2-methoxyethoxy)-2,3-dihydro-1H-inden-1-yl)urea] | 100 to 1000 |
| CCOc1nn(-c2ccccc2)c(NC(=O)NC2CCc3ccccc32)c1C (stereo not shown) [Example 53, 1-(2,3-dihydro-1H-inden-1-yl)-3-(3-ethoxy-4-methyl-1-phenyl-1H-pyrazol-5-yl)urea] | 100 to 1000 |
| CCOc1nn(-c2ccccc2)c(NC(=O)N[C@H]2CCc3ccccc32)c1C [Example 54, (S)-1-(2,3-dihydro-1H-inden-1-yl)-3-(3-ethoxy-4-methyl-1-phenyl-1H-pyrazol-5-yl)urea] | 100 to 1000 |
| Cc1ncc(-c2nn(-c3ccccc3)c(NC(=O)N[C@@H]3c4ccccc4C(C)(C)[C@H]3O)c2C)cn1 [Example 73, 1-((1,2-trans)-2-hydroxy-3,3-dimethyl-2,3-dihydro-1H-inden-1-yl)-3-(4-methyl-3-(2-methylpyrimidin-5-yl)-1-phenyl-1H-pyrazol-5-yl)urea] | < 100 |
| Cc1c(OC[C@H]2CN(C)CCO2)nn(-c2ccccc2)c1NC(=O)N[C@@H]1c2ccccc2C(C)(C)C[C@H]1O [Example 74, 1-((1R,2R)-2-hydroxy-4,4-dimethyl-1,2,3,4-tetrahydronaphthalen-1-yl)-3-(4-methyl-3-(((R)-4-methylmorpholin-2-yl)methoxy)-1-phenyl-1H-pyrazol-5-yl)urea] | < 100 |
| Cc1c(OC[C@H]2CN(C)CCO2)nn(-c2ccccc2)c1NC(=O)N[C@H]1c2ccccc2C(C)(C)C[C@@H]1O [Example 75, 1-((1S,2S)-2-hydroxy-4,4-dimethyl-1,2,3,4-tetrahydronaphthalen-1-yl)-3-(4-methyl-3-(((R)-4-methylmorpholin-2-yl)methoxy)-1-phenyl-1H-pyrazol-5-yl)urea] | < 100 |
| Cc1c(OC[C@@H]2CN(C)CCO2)nn(-c2ccccc2)c1NC(=O)N[C@@H]1c2ccccc2C(C)(C)C[C@H]1O [Example 76, 1-((1R,2R)-2-hydroxy-4,4-dimethyl-1,2,3,4-tetrahydronaphthalen-1-yl)-3-(4-methyl-3-(((S)-4-methylmorpholin-2-yl)methoxy)-1-phenyl-1H-pyrazol-5-yl)urea] | < 100 |
| Cc1c(OC[C@H]2CN(C)CCO2)nn(-c2ccccc2)c1NC(=O)NC1c2cc(F)c(F)cc2C(C)(C)C[C@H]1O (stereo partly drawn) [Example 77, 1-(trans-6,7-difluoro-2-hydroxy-4,4-dimethyl-1,2,3,4-tetrahydronaphthalen-1-yl)-3-(4-methyl-3-(((R)-4-methylmorpholin-2-yl)methoxy)-1-phenyl-1H-pyrazol-5-yl)urea] | < 100 |
| Cc1c(OC[C@H]2CN(C)CCO2)nn(-c2ccccc2)c1NC(=O)NC1c2ccccc2C2(CC2)[C@@H]1O (stereo partly drawn) [Example 78, 1-(trans-2′-hydroxy-2,3′-dihydrospiro[cyclopropane-1,1′-inden]-3′-yl)-3-(4-methyl-3-(((R)-4-methylmorpholin-2-yl)methoxy)-1-phenyl-1H-pyrazol-5-yl)urea] | < 100 |
| CNC(=O)c1nn(-c2ccccc2)c(NC(=O)N[C@@H]2c3cc(F)c(F)cc3C(C)(C)C[C@H]2O)c1C [Example 79, 5-(3-((1,2-trans)-6,7-difluoro-2-hydroxy-4,4-dimethyl-1,2,3,4-tetrahydronaphthalen-1-yl)ureido)-N,4-dimethyl-1-phenyl-1H-pyrazole-3-carboxamide] | < 100 |
| Cc1c(-c2cnn(C)c2)nn(-c2ccccc2)c1NC(=O)N[C@@H]1c2cc(F)c(F)cc2C(C)(C)C[C@H]1O [Example 80, 1-((1,2-trans)-6,7-difluoro-2-hydroxy-4,4-dimethyl-1,2,3,4-tetrahydronaphthalen-1-yl)-3-(1′,4-dimethyl-1-phenyl-1H,1′H-[3,4′-bipyrazol]-5-yl)urea] | < 100 |

Further lines, results first:

| IC50 [nM] | Structure (SMILES) |
| --- | --- |
| < 100 | CNC(=O)c1nn(-c2ccccc2)c(NC(=O)N[C@@H]2c3ccccc3C3(CC3)[C@H]2O)c1C [Example 59, 215-(3-(trans-2′-hydroxy-2′,3′-dihydrospiro[cyclopropane-1,1′-inden]-3′-yl)ureido)-N,4-dimethyl-1-phenyl-1H-pyrazole-3-carboxamide] |
| < 100 | Cc1c(-c2cnn(C)c2)nn(-c2ccccc2)c1NC(=O)N[C@@H]1c2ccccc2C[C@H]1O [Example 65, 1-(1′,4-dimethyl-1-phenyl-1H,1′H-[3,4′-bipyrazol]-5-yl)-3-((1R,2R)-2-hydroxy-2,3-dihydro-1H-inden-1-yl)urea] |
| < 100 | Cc1ncc(-c2nn(-c3ccccc3)c(NC(=O)N[C@@H]3c4ccccc4C[C@H]3O)c2C)cn1 [Example 66, 1-((1R,2R)-2-hydroxy-2,3-dihydro-1H-inden-1-yl)-3-(4-methyl-3-(2-methylpyrimidin-5-yl)-1-phenyl-1H-pyrazol-5-yl)urea] |
| < 100 | CCOc1ncc(-c2nn(-c3ccccc3)c(NC(=O)N[C@@H]3c4ccccc4C[C@H]3O)c2C)cn1 [Example 67, 1-(3-(2-ethoxypyrimidin-5-yl)-4-methyl-1-phenyl-1H-pyrazol-5-yl)-3-((1R,2R)-2-hydroxy-2,3-dihydro-1H-inden-1-yl)urea] |
| < 100 | COc1ncc(-c2nn(-c3ccccc3)c(NC(=O)N[C@@H]3c4ccccc4C[C@H]3O)c2C)cn1 [Example 68, 1-((1R,2R)-2-hydroxy-2,3-dihydro-1H-inden-1-yl)-3-(3-(2-methoxypyrimidin-5-yl)-4-methyl-1-phenyl-1H-pyrazol-5-yl)urea] |
| < 100 | Cc1c(-c2cc(C)c(=O)n(C)c2)nn(-c2ccccc2)c1NC(=O)N[C@@H]1c2ccccc2C[C@H]1O [Example 69, 1-(3-(1,5-dimethyl-6-oxo-1,6-dihydropyridin-3-yl)-4-methyl-1-phenyl-1H-pyrazol-5-yl)-3-((1R,2R)-2-hydroxy-2,3-dihydro-1H-inden-1-yl)urea] |
| < 100 | Cc1c(-c2cnn(C)c2)nn(-c2ccccc2)c1NC(=O)N[C@@H]1c2cc(Cl)ccc2C[C@H]1O [Example 70, 1-((1,2-trans)-6-chloro-2-hydroxy-2,3-dihydro-1H-inden-1-yl)-3-(1′,4-dimethyl-1-phenyl-1H,1′H-[3,4′-bipyrazol]-5-yl)urea] |
| < 100 | Cc1ncc(-c2nn(-c3ccccc3)c(NC(=O)N[C@@H]3c4cc(Cl)ccc4C[C@H]3O)c2C)cn1 [Example 71, 1-((1,2-trans)-6-chloro-2-hydroxy-2,3-dihydro-1H-inden-1-yl)-3-(4-methyl-3-(2-methylpyrimidin-5-yl)-1-phenyl-1H-pyrazol-5-yl)urea] |
| < 100 | Cc1c(-c2cnn(C)c2)nn(-c2ccccc2)c1NC(=O)N[C@@H]1c2ccccc2C(C)(C)[C@H]1O [Example 72] |
